Data: PubChem BioAssay AID1259407 (Chemical Carcinogenesis Research Information System (CCRIS), 2018)
The source made the active and inactive calls. The rule behind the calls is not given here.

Test system: CCRIS mutagenicity, Ames/micronucleus/aberration tests
Assay: CCRIS mutagenicity studies
[1] = Test System: AMES SALMONELLA TYPHIMURIUM, Strain/Indicator: TA98, Metabolic Activation: NONE, Method: PREINCUBATION
[2] = Test System: AMES SALMONELLA TYPHIMURIUM, Strain/Indicator: TA98, Metabolic Activation: NONE, Method: STANDARD PLATE
[3] = Test System: AMES SALMONELLA TYPHIMURIUM, Strain/Indicator: TA100, Metabolic Activation: NONE, Method: PREINCUBATION
[4] = Test System: AMES SALMONELLA TYPHIMURIUM, Strain/Indicator: TA100, Metabolic Activation: NONE, Method: STANDARD PLATE
[5] = Test System: AMES SALMONELLA TYPHIMURIUM, Strain/Indicator: TA1535, Metabolic Activation: NONE, Method: STANDARD PLATE
[6] = Test System: AMES SALMONELLA TYPHIMURIUM, Strain/Indicator: TA1538, Metabolic Activation: NONE, Method: STANDARD PLATE

CCN(CC)CCNc1ccc(CO)c2sc3ccccc3c(=O)c12
mutagenic call (Test System: AMES SALMONELLA TYPHIMURIUM, Strain/Indicator: TA98, Metabolic Activation: HAMSTER, LIVER, S-9, AROCLOR 1254 (30%), Method: PREINCUBATION): active; positive
mutagenic call [1]: active; positive
mutagenic call [2]: active; positive
mutagenic call (Test System: AMES SALMONELLA TYPHIMURIUM, Strain/Indicator: TA98, Metabolic Activation: RAT, LIVER, S-9, AROCLOR 1254 (30%), Method: PREINCUBATION): active; positive
mutagenic call (Test System: AMES SALMONELLA TYPHIMURIUM, Strain/Indicator: TA98, Metabolic Activation: RAT, LIVER, S-9, AROCLOR 1254 OR PHENOBARBITOL, Method: STANDARD PLATE): active; positive
mutagenic call (Test System: AMES SALMONELLA TYPHIMURIUM, Strain/Indicator: TA98, Metabolic Activation: RAT, LIVER, S-9, KC500 OR PHENOBARBITAL, Method: LIQUID SUSPENSION): active; positive
mutagenic call (Test System: AMES SALMONELLA TYPHIMURIUM, Strain/Indicator: TA100, Metabolic Activation: HAMSTER, LIVER, S-9, AROCLOR 1254 (30%), Method: PREINCUBATION): active; positive
mutagenic call [3]: active; positive
mutagenic call [4]: active; positive
mutagenic call (Test System: AMES SALMONELLA TYPHIMURIUM, Strain/Indicator: TA100, Metabolic Activation: RAT, LIVER, S-9, AROCLOR 1254 (30%), Method: PREINCUBATION): active; positive
mutagenic call (Test System: AMES SALMONELLA TYPHIMURIUM, Strain/Indicator: TA100, Metabolic Activation: RAT, LIVER, S-9, AROCLOR 1254 OR PHENOBARBITOL, Method: STANDARD PLATE): active; positive
mutagenic call (Test System: AMES SALMONELLA TYPHIMURIUM, Strain/Indicator: TA100, Metabolic Activation: RAT, LIVER, S-9, KC500 OR PHENOBARBITAL, Method: LIQUID SUSPENSION): active; positive
mutagenic call [5]: inactive; negative
mutagenic call (Test System: AMES SALMONELLA TYPHIMURIUM, Strain/Indicator: TA1535, Metabolic Activation: RAT, LIVER, S-9, AROCLOR 1254 OR PHENOBARBITOL, Method: STANDARD PLATE): inactive; negative
mutagenic call (Test System: AMES SALMONELLA TYPHIMURIUM, Strain/Indicator: TA1537, Metabolic Activation: NONE, Method: STANDARD PLATE): active; positive
mutagenic call (Test System: AMES SALMONELLA TYPHIMURIUM, Strain/Indicator: TA1537, Metabolic Activation: RAT, LIVER, S-9, AROCLOR 1254 OR PHENOBARBITOL, Method: STANDARD PLATE): active; positive
mutagenic call (Test System: AMES SALMONELLA TYPHIMURIUM, Strain/Indicator: TA1537, Metabolic Activation: RAT, LIVER, S-9, KC500 OR PHENOBARBITAL, Method: LIQUID SUSPENSION): active; positive
mutagenic call [6]: active; positive
mutagenic call (Test System: AMES SALMONELLA TYPHIMURIUM, Strain/Indicator: TA1538, Metabolic Activation: RAT, LIVER, S-9, AROCLOR 1254 OR PHENOBARBITOL, Method: STANDARD PLATE): active; positive
mutagenic call (Test System: AMES SALMONELLA TYPHIMURIUM, Strain/Indicator: TA1538, Metabolic Activation: RAT, LIVER, S-9, KC500 OR PHENOBARBITAL, Method: LIQUID SUSPENSION): active; positive
mutagenic call (Test System: CHINESE HAMSTER OVARY, Strain/Indicator: CHO-K1-BH4 (HGPRT), Metabolic Activation: NONE, Method: SUSPENSION/PLATE): active; positive
mutagenic call (Test System: MOUSE LYMPHOMA, Strain/Indicator: L5178Y (TK+/TK-), Metabolic Activation: NONE, Method: SUSPENSION/PLATE): active; positive
mutagenic call (Test System: MOUSE LYMPHOMA, Strain/Indicator: L5178Y (TK+/TK-), Metabolic Activation: RAT, LIVER, S-9, AROCLOR 1254, Method: SUSPENSION/PLATE): active; positive

CC(C)CC(C)Nc1ccc(Nc2ccccc2)cc1 (stereo not drawn)
mutagenic call (Test System: AMES SALMONELLA TYPHIMURIUM, Strain/Indicator: TA97, Metabolic Activation: MOUSE, LIVER, S-9, DELOR 103, Method: STANDARD PLATE): inactive; negative
mutagenic call (Test System: AMES SALMONELLA TYPHIMURIUM, Strain/Indicator: TA97, Metabolic Activation: NONE, Method: STANDARD PLATE): inactive; negative
mutagenic call (Test System: AMES SALMONELLA TYPHIMURIUM, Strain/Indicator: TA98, Metabolic Activation: HAMSTER, LIVER, S-9, AROCLOR 1254 (10%), Method: PREINCUBATION): inactive; negative
mutagenic call (Test System: AMES SALMONELLA TYPHIMURIUM, Strain/Indicator: TA98, Metabolic Activation: MOUSE, LIVER, S-9, DELOR 103, Method: STANDARD PLATE): inactive; negative
mutagenic call [1]: inactive; negative
mutagenic call [2]: inactive; negative
mutagenic call (Test System: AMES SALMONELLA TYPHIMURIUM, Strain/Indicator: TA98, Metabolic Activation: RAT, LIVER, S-9, AROCLOR 1254 (10%), Method: PREINCUBATION): inactive; negative
mutagenic call (Test System: AMES SALMONELLA TYPHIMURIUM, Strain/Indicator: TA100, Metabolic Activation: HAMSTER, LIVER, S-9, AROCLOR 1254 (10%), Method: PREINCUBATION): inactive; negative
mutagenic call (Test System: AMES SALMONELLA TYPHIMURIUM, Strain/Indicator: TA100, Metabolic Activation: MOUSE, LIVER, S-9, DELOR 103, Method: STANDARD PLATE): inactive; negative
mutagenic call [3]: inactive; negative
mutagenic call [4]: inactive; negative
mutagenic call (Test System: AMES SALMONELLA TYPHIMURIUM, Strain/Indicator: TA100, Metabolic Activation: RAT, LIVER, S-9, AROCLOR 1254 (10%), Method: PREINCUBATION): inactive; negative
mutagenic call (Test System: AMES SALMONELLA TYPHIMURIUM, Strain/Indicator: TA1535, Metabolic Activation: HAMSTER, LIVER, S-9, AROCLOR 1254 (10%), Method: PREINCUBATION): inactive; negative
mutagenic call (Test System: AMES SALMONELLA TYPHIMURIUM, Strain/Indicator: TA1535, Metabolic Activation: NONE, Method: PREINCUBATION): inactive; negative
mutagenic call [5]: inactive; negative
mutagenic call (Test System: AMES SALMONELLA TYPHIMURIUM, Strain/Indicator: TA1535, Metabolic Activation: RAT, LIVER, S-9, AROCLOR 1254 (10%), Method: PREINCUBATION): inactive; negative
mutagenic call (Test System: AMES SALMONELLA TYPHIMURIUM, Strain/Indicator: TA1537, Metabolic Activation: HAMSTER, LIVER, S-9, AROCLOR 1254 (10%), Method: PREINCUBATION): inactive; negative
mutagenic call (Test System: AMES SALMONELLA TYPHIMURIUM, Strain/Indicator: TA1537, Metabolic Activation: NONE, Method: PREINCUBATION): inactive; negative
mutagenic call (Test System: AMES SALMONELLA TYPHIMURIUM, Strain/Indicator: TA1537, Metabolic Activation: RAT, LIVER, S-9, AROCLOR 1254 (10%), Method: PREINCUBATION): inactive; negative
mutagenic call [6]: inactive; negative
